Where two headings read alike, the source gives them in different places.
Legend:
wild type SH-EP1 cells = experiment: Control: response of wild type SH-EP1 cells (no nAChRs expressed) to acetylcholine; assay type: binding, human; settings: wild type SH-EP1 cells without nAChRs, 500 nM acetylcholine
Description: H are shown. The scale bar is 20 μm.
Curve 370 represents the measurements for cell G and lighter curve 370 represents the measurements for cell H.

[1] = biological target: human α4β2 nicotinic acetylcholine receptors (nAChRs) (Homo sapiens, UniProt P17787+P43681); settings: FIG. 5F, 100 nM Acetylcholine
Sequence of human α4β2 nicotinic acetylcholine receptors (nAChRs) (P43681 29-627 limits assumed): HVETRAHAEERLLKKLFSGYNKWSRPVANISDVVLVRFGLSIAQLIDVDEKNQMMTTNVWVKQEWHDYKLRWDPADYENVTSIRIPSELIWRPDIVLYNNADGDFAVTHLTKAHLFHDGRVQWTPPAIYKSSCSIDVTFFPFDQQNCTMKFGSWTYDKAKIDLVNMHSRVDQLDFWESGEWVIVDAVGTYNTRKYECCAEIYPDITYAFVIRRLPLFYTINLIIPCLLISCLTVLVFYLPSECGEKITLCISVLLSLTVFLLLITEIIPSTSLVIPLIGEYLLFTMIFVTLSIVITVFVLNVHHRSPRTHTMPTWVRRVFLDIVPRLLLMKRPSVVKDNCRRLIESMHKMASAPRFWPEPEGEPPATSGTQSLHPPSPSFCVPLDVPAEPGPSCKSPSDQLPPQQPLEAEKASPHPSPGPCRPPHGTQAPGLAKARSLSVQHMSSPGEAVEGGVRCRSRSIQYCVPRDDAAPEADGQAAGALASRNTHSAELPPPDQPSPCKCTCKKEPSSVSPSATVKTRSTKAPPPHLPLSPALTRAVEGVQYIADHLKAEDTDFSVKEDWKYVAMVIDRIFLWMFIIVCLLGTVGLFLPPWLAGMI
Sequence of human α4β2 nicotinic acetylcholine receptors (nAChRs) (P17787 26-502): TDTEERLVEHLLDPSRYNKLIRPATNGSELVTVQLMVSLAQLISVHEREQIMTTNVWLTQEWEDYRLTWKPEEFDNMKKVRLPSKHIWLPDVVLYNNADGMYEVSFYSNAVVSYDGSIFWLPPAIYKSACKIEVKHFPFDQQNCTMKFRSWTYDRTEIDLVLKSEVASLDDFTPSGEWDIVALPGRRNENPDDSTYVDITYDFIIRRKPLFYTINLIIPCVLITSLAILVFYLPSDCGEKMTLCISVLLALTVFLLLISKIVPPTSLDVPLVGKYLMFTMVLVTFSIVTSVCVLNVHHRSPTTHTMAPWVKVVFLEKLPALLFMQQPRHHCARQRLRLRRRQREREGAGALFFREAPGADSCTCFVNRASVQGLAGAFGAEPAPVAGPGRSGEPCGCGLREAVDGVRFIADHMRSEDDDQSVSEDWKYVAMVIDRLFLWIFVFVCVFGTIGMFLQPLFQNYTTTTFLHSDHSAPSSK
Description: The edge of a cell 5 can be manually defined from the optical image of the cell, but an imaging processing algorithm can automatically detect the cell edge, providing high throughput. After determining the cell edge, a region of interest (ROI) is selected at a location of the cell edge. The ROI can be a rectangular shape30 with the cell edge 32 passing through the center portion of the rectangle, dividing the rectangle into two equal halves, one half 34 is inside of the cell, and the second half 36 falls outside of the cell. We denote the intensities of the two halves of the differential image as A and B, and (A−B)/(A+B) is calculated and used to determine the movement of the cell edge at each location. […]
The relation between the cell edge movement and the measured differential image intensity change from one of the above differential optical detection method can be determined as below. […] The edge of one cell is manually chosen and the centroid (O) of the cell is determined (FIGS. 1B and 1C). […] The cell edge movement was calculated at every 10 starting from 0 (FIG. 1E). The ROI at a certain point of the cell edge (point A) is then shifted by different numbers of pixels outwards (perpendicular to the tangential line at point A), and the corresponding changes in the differential image intensity is determined from the image. […]

CC(=O)OCC[N+](C)(C)C.[Cl-] [acetylcholine, acetylcholine chloride]
deformation in the cell membrane (wild type SH-EP1 cells): no deformation | amount of cell membrane deformation after acetylcholine binding ([1]; lower end of range, at region 592): about −40 nm | amount of cell membrane deformation after acetylcholine binding ([1]; upper end of range, at arrow 590): about 80 nm

From patent publication US10401298B2, “Label-free detection of small and large molecule interactions, and activities in biological systems” (Arizona Board of Regents on behalf of Arizona State …, priority 2014, dated 2019)
